pIC50: −log10 of the molar value. Read-outs that look alike come from different tables or passages of the source.
Columns and labels:
HPAF-II = assay: In vitro cytotoxicity (CellTiter Glo, 5 days), HPAF-II; type: cell-based; details: controls (FITC-ADC 8 DAR 6.36; FITC-ADC 4 DAR 3.39; free belotecan)
Method: (§1) Various cancer cell lines were plated in 96-well plates (Costar 3610) at a density of 1.5×10^3 cells/well in 100 μL of growth media. The next day, cells were treated with […] of test compounds serially-diluted in media. After incubation at 37° C. with […] for 5 days, viability was measured using the Promega CellTiter Glo® reagent according to the manufacturer's recommendations. GI50 curves were calculated in GraphPad Prism normalized to the payload concentration.

A431 [1] = assay: In vitro cytotoxicity (CellTiter Glo, 5 days), A431; type: cell-based; details: controls (FITC-ADC 8 DAR 6.36; FITC-ADC 4 DAR 3.39; free belotecan)
Method: as §1

[2] = NHP payload (belotecan) concentration in plasma; type: in vivo, cynomolgus monkeys; details: cynomolgus, ADC dosed q3wX2
Method: To assess toxicity of the TF-ADCs, female cynomolgus (“cyno”) monkeys (n=2 per group) were treated via IV bolus with test articles at the doses indicated in the table below on days 1 and 22 (q3wX2). All monkeys that survived until day 43 of the study underwent euthanasia for necropsy and anatomic pathology evaluation. Clinical observations, ECG, eye exams, clinical and anatomic pathology, and TK analysis were performed.
Further, payload concentrations in plasma of cyno treated with various dosages of TF-ADC 6-4 and TF-ADC 6-8 were evaluated and the data is shown in FIGS. 14A and 14B. […] The plasma level of belotecan was low relative to ADCs and total antibody with a molar ratio (AUC0-21d) ranging from 169 to 519 for TF-ADC 6-4 and 130 to 156 for TF-ADC 6-8. TF-ADC 6-4 had approximately 2-fold higher belotecan compared to TF-ADC 6-8 for the same dose level. […] Belotecan's apparent half-life ranged between 3 to 6 days (Formation rate-limited).

BxPC-3 = assay: In vitro cytotoxicity (CellTiter Glo, 5 days), BxPC-3; type: cell-based; details: controls (FITC-ADC 8 DAR 6.36; FITC-ADC 4 DAR 3.39; free belotecan), FITC-ADC 4 value marked *: likely not accurate due to curve shape
Method: as §1

A431 [3] = assay: ATP release from treated tumor cells (RealTimeGlo); type: cell-based; details: TF+ tumor cell line, e.g.
Method: (§2) Tumor cell treatment: Tumor cells (such as A431 or SKOV-3) were trypsinized by washing with PBS, then 3 mL of TrypLE express was added to each T75 flask and incubated for 3-5 minutes at 37° C. DMEM containing 10% FBS (Gibco) was added to each flask to gently wash cells. Cells were then transferred to a conical tube and centrifuged at 1000RPM for 5 minutes and resuspended in fresh medium. Cells were counted and the cell concentration was adjusted to 10,000 cells per 80 μL. Cells were plated at 80 μL per well and incubated at 37° C., 5% CO2 for 5 hours to allow cells to adhere to the plate surface. 5× dilutions of treatment compounds were made in medium. 20 µL of treatment were added to each well and mixed gently and incubated at 37° C., 5% CO2. Belotecan, MMAE, and a benchmark ADC (also referred to herein as BM ADC, CAS 1418731-10-8 and INN 10148) were also tested in parallel and served as additional controls.
(§3) ICD molecule, such as ATP and HMGB1, readouts were performed as follows. For ATP release measurement, Promega RealTimeGlo extracellular ATP assay kit (Promega, Cat #GA5010) was used according to the manufacturer's instructions. […] ATP release was measured beginning 24 hours after treatment with readings every 10 minutes on a Spectramax i3× with temperature control at 37° C. […] HMGB1 release was measured at 48- and 72-hours post-treatment.

A431 [4] = assay: HMGB1 release from treated tumor cells (Lumit); type: cell-based; details: TF+ tumor cell line, e.g.
Method: as §2, §3

[5] = read-out: IC50 - drug concentration
[6] = read-out: IC50 - mAb concentration

CC[C@@]1(O)C(=O)OCc2c1cc1n(c2=O)Cc2c-1nc1ccccc1c2CCNC(C)C [belotecan]
pIC50 (HPAF-II; Homo sapiens, 120 h, read-out: IC50 - drug concentration): 8.52 | pIC50 (HPAF-II; Homo sapiens, 120 h, read-out: IC50 - mAb concentration): 8.52 | pIC50 (HPAF-II; [5]): 8.61 | pIC50 (HPAF-II; [6]): 8.61 | pIC50 (A431 [1]; Homo sapiens, A-431, 120 h, FITC-ADC 4 value marked *: likely not accurate due to curve shape, read-out: IC50 - mAb concentration): 8.63 | pIC50 (A431 [1]; Homo sapiens, A-431, 120 h, read-out: IC50 - drug concentration): 8.63 | pIC50 (A431 [1]; FITC-ADC 4 value marked *: likely not accurate due to curve shape, read-out: IC50 - mAb concentration): 8.58 | pIC50 (A431 [1]; [5]): 8.58 | accumulation of payload [2]: Minimal accumulation of payload was observed | pIC50 (BxPC-3; Homo sapiens, BXPC-3, 120 h, read-out: IC50 - drug concentration): 8.58 | pIC50 (BxPC-3; Homo sapiens, BXPC-3, 120 h, read-out: IC50 - mAb concentration): 8.58 | pIC50 (BxPC-3; [5]): 8.59 | pIC50 (BxPC-3; [6]): 8.59 | ATP release (A431 [3]): induced the release | HMGB1 release (A431 [4]): induced the release

Source: US20260325667A1, “TISSUE FACTOR ANTIBODY-DRUG CONJUGATES AND USES THEREOF” (priority 2022, published 2026)
